Laboratory results taken from patent US5622936A (priority 1988, dated 1997).

Columns and labels:
[1] = Toxicity in BD6 rats with transplanted 1C32 tumor with autopsy; assay type: in vivo, rat
Description: (§1) Autopsy of the animals after 28 days gave no findings. […] The result of autopsy (among others liver, kidneys, spleen, brain, bone marrow) on day 15 after the onset of treatment gave no finding.

[2] = Stability in methanolic solution (TLC analysis); assay type: physicochemical; conditions: room temperature
[3] = tested on: mammary tumor cell-line 1C32; experiment: Cytotoxic activity in vitro, mammary tumor cell line 1C32; assay type: cell-based, rat
Description: (§2) This was confirmed by measuring the biological efficiency, namely the cytotoxic activity in vitro by studies done on a murine retrothelial sarcoma, and on rat mammary tumor cell lines, and on Eb/Esb cell lines.

[4] = tested on: mammary tumor cell-line 1C29; experiment: Cytotoxic activity in vitro, mammary tumor cell line 1C29; assay type: cell-based, rat
Description: as §2

[5] = tested on: mammary tumor cell-line 1C39; experiment: Cytotoxic activity in vitro, mammary tumor cell line 1C39; assay type: cell-based, rat
Description: as §2

[6] = tested on: glycosidases; experiment: Enzymatic cleavage of the glycosidic bond by glycosidases (release of IPM); assay type: biochemical; conditions: glycosidases / enzyme mixtures, TLC, NBP detection
Description: On incubation of the glycosides in HEPES or water with corresponding glycosidases a rapid cleavage of the glycosidic bond could be observed.
(§3) Because each in 50 and 51 two glycosidic bonds are present, showing the same (51β) or a different configuration (f.i. 50α), along with single glucosidases enzyme mixtures were used to check the enzymatic release of IPM. The enzymatic cieavage of the pure anomeric conjugates 50 and 51 was monitored by TLC; intact conjugates or the cleavage products 28α, 28β or IPM were detected with NBP.

[7] = tested on: retrothelial sarcoma cells
[8] = Acute toxicity in male CD2 F1 mice with autopsy; assay type: in vivo, mouse; conditions: 100 and 1000 mg/kg i.p.
Description: as §1

[9] = tested on: bone-marrow; experiment: Bone-marrow toxicity
[10] = tested on: β-glucosidase; experiment: Cleavage by a single enzyme, β-glucosidase (TLC); assay type: biochemical
Description: as §3

In the case of `O=P(NCCCl)(NCCCl)OC1O[C@H](CO)[C@H](O)[C@H](O)[C@H]1O` (some centres unmarked) [Gal-IPM], the toxicity ([1]; BD6 rats with transplanted 1C32 tumor, 5-122.5 and 5-245 mg/kg, resp.) is reported as “did not show any toxicity” and the autopsy ([1]; day 15 after onset of treatment, liver, kidneys, spleen, brain, bone marrow) is reported as “no finding”.

With `O=P(NCCCl)(NCCCl)OC1O[C@H](CO)[C@@H](O[C@@H]2O[C@H](CO)[C@@H](O)[C@H](O)[C@H]2O)[C@H](O)[C@H]1O` (some centres unmarked) [Compound 51] the stability [2] was “stable”.

In the case of `O=P(NCCCl)(NCCCl)O[C@@H]1O[C@H](CO)[C@H](O)[C@H](O)[C@H]1O` [Compound 29β, β-D-Galactopyranosyl N,N'-di-(2-chloroethyl) phosphoric acid diamide], the “most effective agent (cytotoxic activity)” value (shortened to “most effective agent”) [3] is reported as “always the most effective agent”, the “most effective agent” value [4] is reported as “always the most effective agent” and the “most effective agent” value [5] is reported as “always the most effective agent”.

In the case of `O=P(NCCCl)(NCCCl)OC1O[C@H](CO)[C@@H](O[C@@H]2O[C@H](CO)[C@H](O)[C@H](O)[C@H]2O)[C@H](O)[C@H]1O` (some centres unmarked) [Compound 50], the stability [2] is reported as “stable” and the “cleavage required for the release of IPM” value [6] is reported as “cleavage of two different glycosidic bonds was required”.

For `O=P(O)(NCCCl)NCCCl` [IPM], the cytotoxicity [7] was “cytotoxicity”.

In the case of `O=P(NCCCl)(NCCCl)O[C@@H]1O[C@H](CO)[C@@H](O)[C@H](O)[C@H]1O` [Compound 28β, β-D-Glucopyranosyl N,N'-di-(2-chloroethyl) phosphoric acid diamide], the acute toxicity [8] is reported as “no acute toxicity could be observed”, the autopsy ([8]; after 28 days) is reported as “no findings” and the bone-marrow toxicity [9] is reported as “very low”.

With `O=P(NCCCl)(NCCCl)O[C@H]1O[C@H](CO)[C@@H](O[C@@H]2O[C@H](CO)[C@@H](O)[C@H](O)[C@H]2O)[C@H](O)[C@H]1O` [Compound 51α, 4-O-(β-D-glucopyranosyl) α-D-glucopyranosyl N,N'-di-(2-chlorethyl) phosphoric acid diamide] the “cleavage required for the release of IPM” value [6] was “cleavage of two different glycosidic bonds was required”.

In the case of `O=P(NCCCl)(NCCCl)O[C@@H]1O[C@H](CO)[C@@H](O[C@@H]2O[C@H](CO)[C@@H](O)[C@H](O)[C@H]2O)[C@H](O)[C@H]1O` [Compound 51β, 4-O-(β-D-Glucopyranosyl) β-D-glucopyranosyl N,N'-di-(2-chloroethyl) phosphoric acid diamide], the “complete cleavage by a single enzyme” value [10] is reported as “could be completely cleaved by a single enzyme”.
